Test results published in patent US20100210467A1, “AGENT FOR IMPROVING SUGARCANE BRIX AND METHOD OF PROMOTING SUGARCANE RIPENING USING THE SAME” (Kumiai Chemical Industry Co., Ltd., priority 2007, published 2010).

What was measured:
Assay type in all cases: in vivo
sugarcane [1] = assay: Example 2: sugar content of sugarcane stem juice after spraying from an aircraft, field test in Brazil; settings: 50 g/ha; after 30 days of spraying
Protocol: (§1) In accordance with “NORMAS DE AVALIAçÃO DA […] DA CANA-DE-AçÚCAR” used in Brazilian sugar refining plants as Standard for quality evaluation of sugarcane, the analysis on the sugar content in the squeezed juice of sugarcane stem was carried out for Brix value, sugar content in sugarcane (PC), and total sugar amount recoverable from sugarcane stem (ATR) as follows.
(§2) Brix was measured according to a digital refractometer. PC was calculated according to the equation (1). ATR was calculated according to the equation (5).
At the time the Brix value of sugarcane grown in a sugarcane cultivated area in Brazil (an average Brix value in the harvesttime being 21%) became 81% of the aforesaid average Brix value, a bispyribac-sodium formulation (a commercially available product, a tradename “NOMINEE 400SC”) was diluted with water so that the amount of the effective ingredient in 30 liters of the spraying liquid could be equal to the used amount shown in Table 3, and the liquid was sprayed over the test area from an air-craft at a rate of 30 liters per hectare.
In a control area, a known fluazifop formulation (a commercially available product, a tradename “[…]”) was similarly sprayed.
Next, 5 individual sugarcanes were cut from 5 locations in each area, i.e. 25 sugarcanes from each area, on the initial day of spraying and after 30 days of spraying, and thereafter the stems were squeezed and sugar was recovered from the juice to obtain the yield. The yield after 30 days of spraying was compared with the yield of the initial day of spraying and the rate of increase (%) was calculated. The analysis on the sugar content in the squeezed juice of sugarcane stems was carried out similarly as in the case of Example 1.

sugarcane [2] = assay: Example 4: sugar content of sugarcane stem juice after pyribenzoxim back pack spraying, field test in Brazil
Protocol: as §1, §2
At the time the Brix value of sugarcane grown in a sugarcane cultivated area in Brazil (an average Brix value in the harvesttime being 20%) became 86% of the aforesaid average Brix value, a pyribenzoxim formulation (a tradename “PYANCHOR”) was diluted with water so that the amount of the effective ingredient in 105 liters of the spraying liquid could be equal to the used amount shown in Table 6, and the liquid was sprayed above the plant by the aid of a CO2-pressurized back pack sprayer to the test area at a rate of 105 liters per hectare.
(§3) In a control area, a known sulfometuron-methyl formulation (a commercially available product, a tradename “CURAVIAL”) was similarly sprayed.
(§4) Next, 20 individual sugarcanes were cut from each area on the initial day of spraying, after 15 days of spraying, after 30 days of spraying and after 45 days of spraying, and thereafter the stems were squeezed and sugar was recovered from the juice to obtain the yield. Each yield was compared with the yield of the initial day of spraying and the rate of increase (%) was calculated. The analysis on the sugar content in the squeezed juice of sugarcane stems was carried out similarly as in the case of Example 1.

sugarcane [3] = assay: Example 3: sugar content of sugarcane stem juice after pyrimisulfan back pack spraying, field test in Brazil
Protocol: as §1, §2
At the time the Brix value of sugarcane grown in a sugarcane cultivated area in Brazil (an average Brix value in the harvesttime being 18%) became 88% of the aforesaid average Brix value, pyrimisulfan (pyrimisulfan prepared by a method disclosed in JP2000-44546A) was diluted with water so that the amount of the effective ingredient in 105 liters of the spraying liquid could be equal to the used amount shown in Table 4, and the liquid was sprayed above the plant by the aid of a CO2-pressurized back pack sprayer to the test area at a rate of 105 liters per hectare.
as §3, §4

sugarcane [4] = assay: Example 5: sugar content of sugarcane stem juice after bispyribac-sodium and/or gibberellin spraying, field test in Brazil
Protocol: as §1, §2
At the time the Brix value of sugarcane grown in a sugarcane cultivated area in Brazil (an average Brix value in the harvesttime being 18%) became 88% of the aforesaid average Brix value, a bispyribac-sodium formulation (a commercially available product, a tradename, “NOMINEE 400SC”) and a gibberellin formulation (a commercially available product, a tradename, “PRO-GIBB”) were admixed together and diluted with water or separately diluted with water so that the amount of the effective ingredient in 105 liters of each of the spraying liquids could be equal to the used amount shown in Table 8, and each liquid was sprayed above the plant by the aid of a CO2-pressurized back pack sprayer to the test area at a rate of 105 liters per hectare.
as §3, §4

sugarcane [5] = assay: Example 1: sugar content of sugarcane stem juice after power-sprayer application, field test in Brazil; settings: 15 g/ha
Protocol: With respect to sugarcane grown in a sugarcane cultivated area in Brazil (an average Brix value in the harvesttime being 18%), a juice was collected from 5 middle internodes selected at random in the sugarcane stem and the Brix value was measured according to a usual method. At the time the measured Brix value became 82% of the aforementioned average Brix value, a bispyribac-sodium formulation (a commercially available product, a tradename “NOMINEE 400SC”) was diluted with water so that the amount of the effective ingredient in 74 liters of the spraying liquid could be equal to the used amount shown in Table 1. The liquid was then sprayed above the plant by the aid of a power sprayer to a test area at a rate of 74 liters per hectare.
as §3
Next, 10 individual sugarcanes were cut from each area on the initial day of spraying, after 30 days of spraying and after 45 days of spraying, and thereafter the stem was squeezed and sugar was recovered from the juice to obtain the yield. Each yield was compared with the yield of the initial day of spraying and the rate of increase (%) was calculated.
as §1, §2
S denotes a sugar content in the extracted liquid and is calculated according to the equation (2). F denotes an amount of fibers in sugarcane and is calculated according to the equation (3). C denotes a conversion coefficient from the sugar content in the extracted liquid to an absolute amount and is calculated according to the equation (4).
LAI denotes a measured value by the digital saccharimeter after clarification of the juice by a clarifying mixture made from aluminum.
PBU denotes the mass of a wet bagasse exhausted from a pressing machine in the squeezed step of sugarcane stem.
ARC denotes an amount of reducing sugar of sugarcane and is calculated from the following equation (6).
AR denotes an amount of reducing sugar in the extracted liquid and is calculated from the following equation (7).

[6] = 40 g/ha, after 15 days of spraying
[7] = 40 g/ha, after 30 days of spraying
[8] = 40 g/ha, after 45 days of spraying
[9] = 15 g/ha, after 15 days of spraying
[10] = 15 g/ha, after 30 days of spraying
[11] = 15 g/ha, after 45 days of spraying
[12] = 10 g/ha, after 15 days of spraying
[13] = 10 g/ha, after 30 days of spraying
[14] = 10 g/ha, after 45 days of spraying

Molecule: CC(Oc1ccc(Oc2ccc(C(F)(F)F)cn2)cc1)C(=O)O (stereo not drawn) [Fluazifop, fluazifop]
- ATR increased rate from the initial day of spraying (sugarcane [1]): 20.2%
- Brix increased rate from the initial day of spraying (sugarcane [1]): 18.1%
- Concentration of soluble solid matter, Brix (sugarcane [1]): 20.5%
- PC increased rate from the initial day of spraying (sugarcane [1]): 22.0%
- Sugar content in sugarcane, PC (sugarcane [1]): 15.1%
- Total sugar amount recoverable from 1 kg of stem, ATR (sugarcane [1]): 146.0 g

Molecule: COc1cc(OC)nc(Oc2cccc(Oc3nc(OC)cc(OC)n3)c2C(=O)ON=C(c2ccccc2)c2ccccc2)n1 [Pyribenzoxim, pyribenzoxim]
- ATR increased rate from the initial day of spraying (sugarcane [2]; [6]): 14.2%
- Brix increased rate from the initial day of spraying (sugarcane [2]; [6]): 10.9%
- Concentration of soluble solid matter, Brix (sugarcane [2]; [6]): 17.8%
- Total sugar amount recoverable from 1 kg of stem, ATR (sugarcane [2]; [6]): 128.1 g
- ATR increased rate from the initial day of spraying (sugarcane [2]; [7]): 10.2%
- Brix increased rate from the initial day of spraying (sugarcane [2]; [7]): 9.1%
- Concentration of soluble solid matter, Brix (sugarcane [2]; [7]): 17.5%
- Total sugar amount recoverable from 1 kg of stem, ATR (sugarcane [2]; [7]): 123.6 g
- ATR increased rate from the initial day of spraying (sugarcane [2]; [8]): 22.0%
- Brix increased rate from the initial day of spraying (sugarcane [2]; [8]): 19.7%
- Concentration of soluble solid matter, Brix (sugarcane [2]; [8]): 19.2%
- Total sugar amount recoverable from 1 kg of stem, ATR (sugarcane [2]; [8]): 136.8 g

Molecule: COCc1cccc(C(O)c2nc(OC)cc(OC)n2)c1NS(=O)(=O)C(F)F (stereo not drawn) [Pyrimisulfan, pyrimisulfan]
- ATR increased rate from the initial day of spraying (sugarcane [3]; [6]): 5.5%
- Brix increased rate from the initial day of spraying (sugarcane [3]; [6]): 5.8%
- Concentration of soluble solid matter, Brix (sugarcane [3]; [6]): 17.4%
- Total sugar amount recoverable from 1 kg of stem, ATR (sugarcane [3]; [6]): 120.1 g
- ATR increased rate from the initial day of spraying (sugarcane [3]; [7]): 9.5%
- Brix increased rate from the initial day of spraying (sugarcane [3]; [7]): 7.6%
- Concentration of soluble solid matter, Brix (sugarcane [3]; [7]): 17.7%
- Total sugar amount recoverable from 1 kg of stem, ATR (sugarcane [3]; [7]): 124.6 g
- ATR increased rate from the initial day of spraying (sugarcane [3]; [8]): 12.6%
- Brix increased rate from the initial day of spraying (sugarcane [3]; [8]): 8.2%
- Concentration of soluble solid matter, Brix (sugarcane [3]; [8]): 17.8%
- Total sugar amount recoverable from 1 kg of stem, ATR (sugarcane [3]; [8]): 128.1 g

Molecule: COC(=O)c1ccccc1S(=O)(=O)NC(=O)Nc1nc(C)cc(C)n1 [Sulfometuron-methyl, sulfometuron-methyl]
- ATR increased rate from the initial day of spraying (sugarcane [4]; [9]): 1.7%
- Brix increased rate from the initial day of spraying (sugarcane [4]; [9]): 1.2%
- Concentration of soluble solid matter, Brix (sugarcane [4]; [9]): 16.7%
- Total sugar amount recoverable from 1 kg of stem, ATR (sugarcane [4]; [9]): 117.0 g
- ATR increased rate from the initial day of spraying (sugarcane [4]; [10]): 8.1%
- Brix increased rate from the initial day of spraying (sugarcane [4]; [10]): 6.4%
- Concentration of soluble solid matter, Brix (sugarcane [4]; [10]): 17.6%
- Total sugar amount recoverable from 1 kg of stem, ATR (sugarcane [4]; [10]): 124.5 g
- ATR increased rate from the initial day of spraying (sugarcane [4]; [11]): −0.6%
- Brix increased rate from the initial day of spraying (sugarcane [4]; [11]): −1.8%
- Concentration of soluble solid matter, Brix (sugarcane [4]; [11]): 16.2%
- Total sugar amount recoverable from 1 kg of stem, ATR (sugarcane [4]; [11]): 114.4 g
- ATR increased rate from the initial day of spraying (sugarcane [2]; [9]): −3.2%
- Brix increased rate from the initial day of spraying (sugarcane [2]; [9]): −5.4%
- Concentration of soluble solid matter, Brix (sugarcane [2]; [9]): 16.5%
- Total sugar amount recoverable from 1 kg of stem, ATR (sugarcane [2]; [9]): 120.1 g
- ATR increased rate from the initial day of spraying (sugarcane [2]; [10]): 9.9%
- Brix increased rate from the initial day of spraying (sugarcane [2]; [10]): 9.2%
- Concentration of soluble solid matter, Brix (sugarcane [2]; [10]): 19.1%
- Total sugar amount recoverable from 1 kg of stem, ATR (sugarcane [2]; [10]): 136.3 g
- ATR increased rate from the initial day of spraying (sugarcane [2]; [11]): 19.0%
- Brix increased rate from the initial day of spraying (sugarcane [2]; [11]): 17.2%
- Concentration of soluble solid matter, Brix (sugarcane [2]; [11]): 20.5%
- Total sugar amount recoverable from 1 kg of stem, ATR (sugarcane [2]; [11]): 147.6 g
- ATR increased rate from the initial day of spraying (sugarcane [5]; after 30 days of spraying): 21.9%
- Brix increased rate from the initial day of spraying (sugarcane [5]; after 30 days of spraying): 21.4%
- Concentration of soluble solid matter, Brix (sugarcane [5]; after 30 days of spraying): 19.2%
- PC increased rate from the initial day of spraying (sugarcane [5]; after 30 days of spraying): 24.3%
- Sugar content in sugarcane, PC (sugarcane [5]; after 30 days of spraying): 13.9%
- Total sugar amount recoverable from 1 kg of stem, ATR (sugarcane [5]; after 30 days of spraying): 138.1 g
- ATR increased rate from the initial day of spraying (sugarcane [5]; after 45 days of spraying): 31.2%
- Brix increased rate from the initial day of spraying (sugarcane [5]; after 45 days of spraying): 29.6%
- Concentration of soluble solid matter, Brix (sugarcane [5]; after 45 days of spraying): 20.5%
- PC increased rate from the initial day of spraying (sugarcane [5]; after 45 days of spraying): 35.1%
- Sugar content in sugarcane, PC (sugarcane [5]; after 45 days of spraying): 15.1%
- Total sugar amount recoverable from 1 kg of stem, ATR (sugarcane [5]; after 45 days of spraying): 148.7 g
- ATR increased rate from the initial day of spraying (sugarcane [3]; [9]): 1.7%
- Brix increased rate from the initial day of spraying (sugarcane [3]; [9]): 1.2%
- Concentration of soluble solid matter, Brix (sugarcane [3]; [9]): 16.7%
- Total sugar amount recoverable from 1 kg of stem, ATR (sugarcane [3]; [9]): 117.0 g
- ATR increased rate from the initial day of spraying (sugarcane [3]; [10]): 8.1%
- Brix increased rate from the initial day of spraying (sugarcane [3]; [10]): 6.4%
- Concentration of soluble solid matter, Brix (sugarcane [3]; [10]): 17.6%
- Total sugar amount recoverable from 1 kg of stem, ATR (sugarcane [3]; [10]): 124.5 g
- ATR increased rate from the initial day of spraying (sugarcane [3]; [11]): −0.6%
- Brix increased rate from the initial day of spraying (sugarcane [3]; [11]): −1.8%
- Concentration of soluble solid matter, Brix (sugarcane [3]; [11]): 16.2%
- Total sugar amount recoverable from 1 kg of stem, ATR (sugarcane [3]; [11]): 114.4 g

Molecule: gibberellin
- ATR increased rate from the initial day of spraying (sugarcane [4]; [12]): 5.3%
- Brix increased rate from the initial day of spraying (sugarcane [4]; [12]): 5.5%
- Concentration of soluble solid matter, Brix (sugarcane [4]; [12]): 17.2%
- Total sugar amount recoverable from 1 kg of stem, ATR (sugarcane [4]; [12]): 120.5 g
- ATR increased rate from the initial day of spraying (sugarcane [4]; [13]): 11.7%
- Brix increased rate from the initial day of spraying (sugarcane [4]; [13]): 8.9%
- Concentration of soluble solid matter, Brix (sugarcane [4]; [13]): 17.8%
- Total sugar amount recoverable from 1 kg of stem, ATR (sugarcane [4]; [13]): 127.9 g
- ATR increased rate from the initial day of spraying (sugarcane [4]; [14]): 3.8%
- Brix increased rate from the initial day of spraying (sugarcane [4]; [14]): 3.1%
- Concentration of soluble solid matter, Brix (sugarcane [4]; [14]): 16.8%
- Total sugar amount recoverable from 1 kg of stem, ATR (sugarcane [4]; [14]): 118.8 g
